Read-outs that look alike come from different tables or passages of the source.
Molecular target: T1, Human AMPK α2β2γ1 (Homo sapiens, UniProt O43741+P54646)
T1 construct: The full length cDNAs of human AMPK β2 (NM_005399.3) and human AMPK α2 (NM_006252.3); The full length cDNAs of human AMPK β2 (NM_005399.3); the full length cDNA of human AMPK γ1 (NM_002733.3) had been inserted into pET28b(+); 6×His (N); made in house; host or cells: Escherichia coli BL21 CodonPlus (DE3)-RIL
Test: Test Example 2: activation of phosphorylated human AMPK α2β2γ1 (mobility-shift kinase assay, FL-Peptide 7)
Format: biochemical
Settings: for EC150: compound concentration showing 150% relative to the control (100%), human AMPK α2β2γ1 phosphorylated with CaMKK2; for Emax: maximum rate of increase in activity within the measurement range, control = 100%
Protocol: The full length cDNAs of human AMPK β2 (NM_005399.3) and human AMPK α2 (NM_006252.3) were inserted into the MCS1 and MCS2 of the pETDuet-1 vector to prepare a human AMPK β2 and human AMPK α2 (6×His tag at the 5′ terminus) expressing plasmid. The plasmid was cotransfected with an expression plasmid, in which the full length cDNA of human AMPK γ1 (NM_002733.3) had been inserted into pET28b(+), into BL21 CodonPlus (DE3)-RIL to obtain an expression strain. The expression strain was cultured in TB medium, followed by induction with 0.5 mM IPTG, and cultured at 25° C. for 3 hours and then harvested. After ultrasonication, supernatant was collected and applied to Histrap FF column (GE) and RESOUECE Q column (GE) to prepare 12.5 mg of purified sample containing three types of subunit from 1.8 L of broth.
An expression vector, in which the full length cDNA of human CAMKK β (NM_172226.1) had been inserted into pGEX-6P-3, was transfected into BL21 Star (DE3). The expression strain was cultured in TB medium, followed by induction with 0.5 mM IPTG, and cultured at 25° C. for 3 hours and then harvested. After ultrasonication, supernatant was collected and applied to GSTrap FF column (GE) to prepare 14 mg of GST-fused CAMKK β from 720 ml of broth.
Thus, phosphorylation treatment was carried out as pretreatment.
Human AMPK α2β2γ1 in an amount to give a conversion rate of approximately 10% by reaction for 2 hours, and CaMKK2 in an amount capable of sufficiently imparting activity to AMPK for one hour were mixed in a buffer solution consisting of a 50 mM HEPES-NaOH buffer solution (pH 7.0), 100 mM NaCl, 5 mM magnesium chloride, 0.1% bovine serum albumin, 0.2 mM sodium orthovanadate(V), 1 mM ethylene glycol-bis(2-aminoethyl ether)-N,N,N′,N′-tetraacetic acid (EGTA), 5 mM disodium β-glycerophosphate, 1 mM dithiothreitol and 0.2 mM ATP, and the resulting liquid was left to stand at 25° C. for 1 to 1.5 hours to sufficiently phosphorylate AMPK.
After that, to the enzyme liquid, which had been subjected to phosphorylation treatment, a compound dissolved in DMSO was added so as to have a 1% DMSO concentration. The resulting liquid was left to stand for 10 minutes.
To the liquid, a substrate solution consisting of a 50 mM HEPES-NaOH buffer solution (pH 7.0), 100 mM NaCl, 10 mM magnesium chloride, 0.1% bovine serum albumin, 0.2 mM sodium orthovanadate(V), 1 mM ethylene glycol-bis(2-aminoethyl ether)-N,N,N′,N′-tetraacetic acid (EGTA), 5 mM disodium β-glycerophosphate, 2 mM dithiothreitol, 0.4 mM ATP and 3 μM FL-Peptide 7 (manufactured by Caliper Life Sciences, Inc.) was added in equal amount (10 μl in total). The resulting liquid was allowed to react at 25° C. for 2 hours, then 10 μl of 20 mM EDTA was added thereto to stop the reaction.
To detect phosphorylated fluorescent substrates, the reaction mixture was applied to a measuring device, LabChip EZ Reader II manufactured by Caliper Life Science, Inc., for detecting fluorescence by using differences in mobility due to differences in charge. The setting conditions for the device were pressure, −1.5 PSI; upstream voltage, −2250 V; downstream voltage, −400 V; post sample buffer sip time, 40 seconds; final delay, 120 seconds; and peak order, Product First.
A conversion rate was calculated from the peak heights of the obtained substrate and product. The conversion rate when not containing a compound was used as a control, and a concentration dependent curve was made by plotting the rate of increase in activity to the control at each concentration of a compound.

T1 sequence (P54646 whole entry): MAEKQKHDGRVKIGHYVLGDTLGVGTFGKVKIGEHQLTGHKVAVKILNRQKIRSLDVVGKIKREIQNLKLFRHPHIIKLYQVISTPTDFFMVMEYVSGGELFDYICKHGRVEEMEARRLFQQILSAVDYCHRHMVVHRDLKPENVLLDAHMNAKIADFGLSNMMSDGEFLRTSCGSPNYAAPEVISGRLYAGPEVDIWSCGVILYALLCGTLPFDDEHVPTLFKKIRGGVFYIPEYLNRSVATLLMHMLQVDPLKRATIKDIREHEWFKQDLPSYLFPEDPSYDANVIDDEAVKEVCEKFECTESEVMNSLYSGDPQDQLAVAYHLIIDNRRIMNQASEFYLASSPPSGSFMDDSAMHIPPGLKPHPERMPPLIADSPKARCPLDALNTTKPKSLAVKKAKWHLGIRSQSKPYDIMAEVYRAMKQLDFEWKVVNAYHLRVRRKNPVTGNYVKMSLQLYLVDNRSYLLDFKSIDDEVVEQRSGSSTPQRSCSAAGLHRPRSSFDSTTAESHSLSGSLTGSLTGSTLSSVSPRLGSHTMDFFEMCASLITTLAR
T1 sequence (O43741 whole entry): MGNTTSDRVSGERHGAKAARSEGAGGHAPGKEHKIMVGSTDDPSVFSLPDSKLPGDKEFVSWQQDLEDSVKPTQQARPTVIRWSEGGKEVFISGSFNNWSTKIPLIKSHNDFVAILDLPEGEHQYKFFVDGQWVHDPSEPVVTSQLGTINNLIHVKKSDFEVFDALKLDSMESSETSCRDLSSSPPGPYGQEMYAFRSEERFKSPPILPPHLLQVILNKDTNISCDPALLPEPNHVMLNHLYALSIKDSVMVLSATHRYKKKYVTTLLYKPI
T1 sequence (P54619 whole entry partner): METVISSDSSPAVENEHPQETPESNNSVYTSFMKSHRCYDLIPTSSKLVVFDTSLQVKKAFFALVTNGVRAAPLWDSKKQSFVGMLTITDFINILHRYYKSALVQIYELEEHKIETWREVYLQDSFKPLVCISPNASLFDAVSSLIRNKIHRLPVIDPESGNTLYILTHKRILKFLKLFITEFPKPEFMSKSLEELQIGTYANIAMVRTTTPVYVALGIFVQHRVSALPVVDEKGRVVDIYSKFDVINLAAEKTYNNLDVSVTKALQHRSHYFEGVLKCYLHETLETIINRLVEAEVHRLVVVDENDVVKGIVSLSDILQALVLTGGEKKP

COC(=O)NC1CC=C(c2ccc(-c3nc4cc(O[C@@H]5CO[C@H]6[C@@H]5OC[C@H]6O)[nH]c4cc3F)cc2)CC1 (some centres unmarked) [Compound I-1-23]
EC150: 2.9 nM
Emax: 436%

COCCOc1ccc(-c2ccc(-c3nc4cc(O[C@@H]5CO[C@H]6[C@@H]5OC[C@H]6O)[nH]c4cc3F)cc2)nc1 [Compound I-2-52]
EC150: 7.2 nM
Emax (read-out: Emax): 532%

CS(C)(=O)=Nc1ccc(-c2ccc(-c3nc4cc(O[C@H]5CCOC5)[nH]c4cc3F)cc2)cc1 [Compound I-1-46]
EC150: 6.6 nM
Emax (read-out: Emax): 276%

CS(C)(=O)=Nc1ccc(-c2ccc(-c3nc4cc(O[C@@H]5CO[C@H](CO)[C@@H]5O)[nH]c4cc3F)cc2)cc1 [Compound I-2-19]
EC150: 67 nM
Emax (read-out: Emax): 192%

NC(=O)c1ccc(-c2ccc(-c3nc4cc(O[C@@H]5CO[C@H]6[C@@H]5OC[C@H]6O)[nH]c4cc3F)cc2)cc1F [Compound I-1-52]
EC150: 2.2 nM
Emax (read-out: Emax): 469%

CC(=O)NC1CCN(c2ccc(-c3nc4cc(O[C@@H]5CO[C@H]6[C@@H]5OC[C@H]6O)[nH]c4cc3F)cc2)CC1 [Compound I-1-31]
EC150: 9.5 nM
Emax (read-out: Emax): 539%

COC(=O)N[C@H]1CC[C@H](c2ccc(-c3nc4cc(O[C@@H]5CO[C@H]6[C@@H]5OC[C@H]6O)[nH]c4cc3F)cc2)CC1 [Compound I-1-39]
EC150: 13 nM
Emax (read-out: Emax): 552%

OCCSc1ccc(-c2ccc(-c3nc4cc(O[C@@H]5CO[C@H]6[C@@H]5OC[C@H]6O)[nH]c4cc3F)cc2)cc1 [Compound I-2-16]
EC150: 1.8 nM
Emax (read-out: Emax): 623%

CS(C)(=O)=Nc1ccc(-c2ccc(-c3nc4cc(O[C@@H]5CO[C@H](CO)C5(F)F)[nH]c4cc3F)cc2)cc1 [Compound I-2-43]
EC150: 6.2 nM
Emax (read-out: Emax): 514%

CCP(=O)(CC)c1ccc(-c2ccc(-c3nc4cc(O[C@@H]5CO[C@H](CO)C5)[nH]c4cc3F)cc2)cc1 [Compound I-2-78]
EC150: 1.5 nM
Emax (read-out: Emax): 573%

CS(=O)(=O)NC1CC=C(c2ccc(-c3nc4cc(O[C@@H]5CO[C@H]6[C@@H]5OC[C@H]6O)[nH]c4cc3F)cc2)CC1 (some centres unmarked) [Compound I-1-17]
EC150: 3.4 nM
Emax (read-out: Emax): 483%

O[C@@H]1CO[C@H]2[C@@H]1OC[C@H]2Oc1cc2nc(-c3ccc(-c4ccc(C5=NCCO5)cc4)cc3)c(F)cc2[nH]1 [Compound I-1-15]
EC150: 0.58 nM
Emax (read-out: Emax): 525%

CN1CCN(c2ccc(-c3ccc(-c4nc5cc(O[C@@H]6CO[C@H]7[C@@H]6OC[C@H]7O)[nH]c5cc4F)cc3)cc2)C1=O [Compound I-2-53]
EC150: 4.2 nM
Emax (read-out: Emax): 638%

CNC(=O)c1ccc(-c2ccc(-c3nc4cc(O[C@@H]5CO[C@H]6[C@@H]5OC[C@H]6O)[nH]c4cc3F)cc2)cc1F [Compound I-1-54]
EC150: 3.3 nM
Emax (read-out: Emax): 416%

OC[C@@H]1C[C@H](Oc2cc3nc(-c4ccc(C5(CO)CC5)cc4)c(F)cc3[nH]2)CO1 [Compound I-2-80]
EC150: 2 nM
Emax (read-out: Emax): 558%

C[S+]([O-])c1ccc(-c2ccc(-c3nc4cc(O[C@@H]5CO[C@H]6[C@@H]5OC[C@H]6O)[nH]c4cc3F)cc2)cc1 (single isomer, unassigned) [Compound I-2-08]
EC150: 1.6 nM
Emax (read-out: Emax): 598%

OC1CCN(c2ccc(-c3ccc(-c4nc5cc(O[C@@H]6CO[C@H]7[C@@H]6OC[C@H]7O)[nH]c5cc4F)cc3)cc2)C1 (some centres unmarked) [Compound I-1-59]
EC150: 2.9 nM
Emax (read-out: Emax): 470%

CN(C)S(=N)(=O)c1ccc(-c2ccc(-c3nc4cc(O[C@@H]5CO[C@H]6[C@@H]5OC[C@H]6O)[nH]c4cc3F)cc2)cc1 (some centres unmarked) [Compound I-2-11]
EC150: 2.1 nM
Emax (read-out: Emax): 408%

COC(=O)N1CC=C(c2ccc(-c3nc4cc(O[C@@H]5CO[C@H]6[C@@H]5OC[C@H]6O)[nH]c4cc3F)cc2)CC1 [Compound I-1-43]
EC150: 7 nM
Emax (read-out: Emax): 514%

O=C(C1CCN(c2ccc(-c3nc4cc(O[C@@H]5CO[C@H]6[C@@H]5OC[C@H]6O)[nH]c4cc3F)cc2)CC1)N1CCCC1 [Compound I-2-44]
EC150: 35 nM
Emax (read-out: Emax): 661%

COCCN(C(C)=O)c1ccc(-c2ccc(-c3nc4cc(O[C@@H]5CO[C@H]6[C@@H]5OC[C@H]6O)[nH]c4cc3F)cc2)cc1 [Compound I-2-37]
EC150: 4.5 nM
Emax (read-out: Emax): 415%

CONC(=O)c1ccc(-c2ccc(-c3nc4cc(O[C@@H]5CO[C@H](CO)C5)[nH]c4cc3F)cc2)cc1 [Compound I-2-86]
EC150: 0.53 nM
Emax (read-out: Emax): 592%

COCCN(C)c1ccc(-c2ccc(-c3nc4cc(O[C@@H]5CO[C@H]6[C@@H]5OC[C@H]6O)[nH]c4cc3F)cc2)cc1 [Compound I-2-12]
EC150: 6.9 nM
Emax (read-out: Emax): 367%

CN(C)S(=O)(=O)c1ccc(-c2ccc(-c3nc4cc(O[C@@H]5CO[C@H]6[C@@H]5OC[C@H]6O)[nH]c4cc3F)cc2)nc1 [Compound I-1-33]
EC150: 6.5 nM
Emax (read-out: Emax): 464%

Clc1cc2[nH]c(O[C@H]3CCOC3)cc2nc1-c1ccc(-c2ccc(OC3CCNC3)cc2)cc1 (some centres unmarked) [Compound I-2-21]
EC150: 13 nM
Emax (read-out: Emax): 249%

CS(C)(=O)=Nc1ccc(-c2ccc(-c3nc4cc(O[C@H]5CCOC5)[nH]c4cc3Cl)cc2)cc1 [Compound I-1-01]
EC150: 24 nM
Emax (read-out: Emax): 282%

O[C@@H]1CO[C@H]2[C@@H]1OC[C@H]2Oc1cc2nc(-c3ccc(N4CCC(OC5CCNC5)CC4)cc3)c(F)cc2[nH]1 (some centres unmarked) [Compound I-2-57]
EC150: 26 nM
Emax (read-out: Emax): 601%

Cc1cc(-c2ccc(N=S(C)(C)=O)cc2)ccc1-c1nc2cc(O[C@@H]3CO[C@H]4[C@@H]3OC[C@H]4O)[nH]c2cc1F [Compound I-1-48]
EC150: 2.9 nM
Emax (read-out: Emax): 576%

CS(=O)(=O)c1ccc(-c2ccc(-c3nc4cc(O[C@@H]5CO[C@H](CO)C5)[nH]c4cc3F)cc2)cc1 [Compound I-2-79]
EC150: 0.69 nM
Emax (read-out: Emax): 591%

COCCOc1cc(F)c(-c2ccc(-c3nc4cc(O[C@@H]5CO[C@H]6[C@@H]5OC[C@H]6O)[nH]c4cc3F)cc2)c(F)c1 [Compound I-2-76]
EC150: 20 nM
Emax (read-out: Emax): 490%

COC(=O)N1CCC(Oc2ccc(-c3ccc(-c4nc5cc(O[C@@H]6CO[C@H]7[C@@H]6OC[C@H]7O)[nH]c5cc4F)cc3)cc2)C1 (some centres unmarked) [Compound I-2-51]
EC150: 9.7 nM
Emax (read-out: Emax): 590%

O[C@@H]1CO[C@H]2[C@@H]1OC[C@H]2Oc1cc2nc(-c3ccc(-c4ccc(OC5CCOC5)cc4)cc3)c(F)cc2[nH]1 (some centres unmarked) [Compound I-2-69]
EC150: 13 nM
Emax (read-out: Emax): 557%

COCC(=O)Nc1ccc(-c2ccc(-c3nc4cc(O[C@@H]5CO[C@H](CO)C5)[nH]c4cc3F)cc2)cc1 [Compound I-2-74]
EC150: 1.2 nM
Emax (read-out: Emax): 656%

COc1cc(-c2ccc(N=S3(=O)CCCC3)cc2)ccc1-c1nc2cc(O[C@@H]3CO[C@H]4[C@@H]3OC[C@H]4O)[nH]c2cc1F [Compound I-1-20]
EC150: 8.3 nM
Emax (read-out: Emax): 457%

Source: US10478425B2, “5-phenylazaindole derivative having AMPK-activating activity” (Shionogi & Co., Ltd., priority 2016, dated 2019)
